Test system: blood cells
Experiment: Blood pattern of gene expression in epileptic individuals treated with anticonvulsant valporate or carbamazepine (Affymetrix U95A, SAM)
Format: in vivo, human
Settings: for Upregulated genes for Carbamazepine: blood of epileptic individuals treated with carbamazepine vs epileptic individuals taking no anticonvulsant, value = Genbank accession of the upregulated gene; for Pattern of expression in blood for each drug: epileptic individuals treated with anticonvulsant vs epileptic individuals taking no anticonvulsant, FIG. 5
Source text: FIG. 5 is a cluster analysis of the expression obtained from pediatric epilepsy patients prior to being treated compared to the expression of these individuals after being treated with anticonvulsant valporate (VPA) or the anticonvulsant carbamazepine (CPZ), as described in the Example 8;
To study the gene expression in Parkinson's patients, blood from over 30 patients is collected from healthy controls as well as from patients with a variety of disorders, including idiopathic Parkinson's patients with bradykinesia, rigidity and the characteristic tremor without dementia or evidence of any other neurological findings; progressive supranuclear palsy, bipolar disorder, schizophrenia, epilepsy, and Tourettes. A commercially available kit (Qiagen) is used to the blood cells from the whole blood samples, and total RNA isolated from the white blood cells. Two thirds of the RNA is used on DNA microarrays, and one third is used for PCR confirmation of the genes that are changed. After the purity of the RNA is checked ([…]), cDNA is synthesized from the total RNA and used to make biotin labeled cRNA. The cRNA is then applied to Affymetrix chips, human U95A chips that can screen for the expression of over 13,000 human genes including 11,000 known genes and 2,000 ESTs, and processed and scanned according to manufacturer's instructions. The chips are scanned twice for each patient sample. Genes that are expressed over two-fold compared to normals are plotted on figures. These genes are confirmed using standard techniques including PCR, Northern blotting or Western blotting. A separate statistical analysis is also applied to the data. […] Once this analysis is performed, the data is used to perform a class prediction analysis. […] The expression value of the genes is shown on the Y axis and the individual patients are plotted on the X-axis.
Blood is obtained from epileptic individuals, epileptic individuals being treated with anticonvulsant valporate and epileptic individuals being treated with anticonvulsant carbamazepine. A pattern of expression is captured and analyzed for each injury state as described in Example 4.

Row | SMILES | Upregulated genes for Carbamazepine (gene AA883870: am26f01.s1 Homo sapiens cDNA, 3 end) | Upregulated genes for Carbamazepine (gene AB000824: Homo sapiens mRNA for trehalase, complete cds) | Pattern of expression in blood for each drug
1 | NC(=O)N1c2ccccc2C=Cc2ccccc21 [Carbamazepine, carbamazepine] | AA883870 | AB000824 | different from each other and different from the controls
2 | CCCC(CCC)C(=O)O [Valporate, valporate] |  |  | different from each other and different from the controls

From US20030104393A1, “Blood assessment of injury” (priority 2000, published 2003)
